Source: patent US9981940B2, “Aryl sulfide derivatives and aryl sulfoxide derivatives as acaricides and insecticides” (BAYER CROPSCIENCE AKTIENGESELLSCHAFT, priority 2013, dated 2018)

Key:
[1] = log P by HPLC (OECD Guideline 117), method [b] neutral range; format: physicochemical; conditions: HPLC; for logP[b]: method [b] neutral range
Experimental: (§1) The log P values were determined analogously to OECD Guideline 117 (EC Directive 92/69/EEC) by HPLC (high-performance liquid chromatography) using reversed-phase columns (C 18), by the following methods:
[b] The LC-MS determination in the neutral range is effected at pH 7.8 with 0.001 molar aqueous ammonium hydrogencarbonate solution and acetonitrile as eluents; linear gradient from 10% acetonitrile to 95% acetonitrile.

[2] = log P by HPLC (OECD Guideline 117), method [a] acidic range; format: physicochemical; conditions: for logP[a]: HPLC, method [a] acidic range; for chromatographic logP: reversed-phase C18 HPLC column, acidic range
Experimental: as §1
[a] The LC-MS determination in the acidic range is effected at pH 2.7 with 0.1% aqueous formic acid and acetonitrile (contains 0.1% formic acid) as eluents; linear gradient from 10% acetonitrile to 95% acetonitrile.

Tetranychus urticae = Tetranychus urticae spray test, OP-resistant (TETRUR); format: in vivo; conditions: application rate of 500 g/ha, after 6 days
In short: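 Bean leaf discs infested with all stages of an OP-resistant Tetranychus urticae strain sprayed with compound in acetone/DMF with alkylaryl polyglycol ether emulsifier, diluted in water. Efficacy in % scored after 6 days; 100% means all mites killed.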

| Structure (SMILES) | logP[b] [1] | logP[a] [2] | chromatographic logP ([1]; reversed-phase C18 HPLC column, neutral range, pH 7.8) | chromatographic logP ([2]; pH 2.7, HPLC method [a], read-out: logP[a]) | chromatographic logP ([2]; pH 2.7, HPLC, pH 2.7, read-out: log P[a]) | efficacy (Tetranychus urticae) [%] | pest or weed control at 500 g/ha (Tetranychus urticae; Tetranychus urticae, 144 h, read-out: efficacy) [%] |
| --- | --- | --- | --- | --- | --- | --- | --- |
| Cc1cc(C)c(-n2nc(C(F)(F)F)n(C3CC3)c2=O)cc1SCC(F)(F)F [Example 48] | 4.09 | 4.13 |  |  |  | 100 |  |
| COc1nn(-c2cc(SCC(F)(F)F)c(Cl)cc2F)c(=O)n1C1CC1 [Example 114] | 3.27 | 3.32 |  |  |  | 100 |  |
| Cc1cc(F)c(-n2nc([S+]([O-])CC(F)F)n(C3CC3)c2=O)cc1[S+]([O-])CC(F)(F)F (stereo not shown) [Example 229] | 2.07 | 2.10 |  |  |  | 90 |  |
| Cc1cc(F)c(-n2nc(C(F)(F)F)n(C)c2=O)cc1[S+]([O-])CC(F)(F)F (stereo not shown) [Example 12, 2-{2-Fluoro-4-methyl-5-[(2,2,2-trifluoroethyl)sulphinyl]phenyl}-4-methyl-5-(trifluoromethyl)-2,4-dihydro-3H-1,2,4-triazol-3-one] |  |  | 2.46 | 2.52 | 2.52 |  | 100 |
| Cc1cc(F)c(-n2nc([S+](C)[O-])n(C)c2=O)cc1SCC(F)(F)F (stereo not shown) [Example 232] | 2.21 | 2.25 |  |  |  | 90 |  |
| CCC(C)c1nn(-c2cc(SCC(F)(F)F)c(C)cc2F)c(=O)n1C1CC1 (stereo not shown) [Example 85] | 3.94 | 4.01 |  |  |  | 100 |  |
| CCOc1nn(-c2cc([S+]([O-])CC(F)(F)F)c(C)cc2F)c(=O)n1C (stereo not shown) [Example 131] | 2.09 | 2.13 |  |  |  | 90 |  |
| Cc1ccc(-n2nc(OCc3ccccc3)n(C)c2=O)cc1[S+]([O-])CC(F)(F)F (stereo not shown) [Example 178] | 3.18 | 3.23 |  |  |  | 90 |  |
| CCC[S+]([O-])c1nn(-c2cc([S+]([O-])CC(F)(F)F)c(C)cc2F)c(=O)n1C (stereo not shown) [Example 246] | 1.95 | 1.99 |  |  |  | 100 |  |
| O=c1n(-c2cc(SCC(F)(F)F)c(Cl)cc2Cl)nc(OCC(F)(F)F)n1C1CC1 [Example 185] | 4.10 | 4.14 |  |  |  | 90 |  |
| CCCc1nn(-c2cc([S+]([O-])CC(F)(F)F)c(C)cc2F)c(=O)n1C1CC1 (racemic) [Example 80] | 2.49 | 2.56 |  |  |  | 100 |  |

Continued, in another order:

| logP[b] [1] | logP[a] [2] | chromatographic logP ([1]; reversed-phase C18 HPLC column, neutral range, pH 7.8) | chromatographic logP ([2]; pH 2.7, HPLC method [a], read-out: logP[a]) | chromatographic logP ([2]; pH 2.7, HPLC, pH 2.7, read-out: log P[a]) | Structure (SMILES) | efficacy (Tetranychus urticae) [%] | pest or weed control at 500 g/ha (Tetranychus urticae; Tetranychus urticae, 144 h, read-out: efficacy) [%] |
| --- | --- | --- | --- | --- | --- | --- | --- |
| 4.18 | 4.36 |  |  |  | CC(C)(C)COc1nn(-c2cc([S+]([O-])CC(F)(F)F)c(Cl)cc2Cl)c(=O)n1C1CC1 (stereo not shown) [Example 405] | 90 |  |
| 3.84 | 3.89 |  |  |  | Cc1cc(F)c(-n2nc(SCC(F)(F)F)n(C3CC3)c2=O)cc1SCC(F)(F)F [Example 254] | 90 |  |
| 3.15 | 3.18 |  |  |  | COCc1nn(-c2cc(SCC(F)(F)F)c(C)cc2F)c(=O)o1 [Example 450] | 100 |  |
| 2.16 | 2.21 |  |  |  | Cc1cc(F)c(-n2ncn(C(C)(C)C)c2=O)cc1[S+]([O-])CC(F)(F)F (stereo not shown) [Example 369] | 100 |  |
| 4.43 | 4.52 |  |  |  | CCCCc1nn(-c2cc(SCC(F)(F)F)c(C)cc2F)c(=S)n1C1CC1 [Example 495] | 100 |  |
| 3.17 | 3.24 |  |  |  | CCCSc1nn(-c2cc([S+]([O-])CC(F)(F)F)c(C)cc2F)c(=O)n1C1CC1 (stereo not shown) [Example 266] | 100 |  |
| 3.39 | 3.46 |  |  |  | Cc1cc(C)c(-n2ncn(C(C)(C)C)c2=O)cc1SCC(F)(F)F [Example 371] | 100 |  |
| 4.29 | 4.35 |  |  |  | Cc1cc(F)c(-n2nc(-c3ccccc3)oc2=O)cc1SCC(F)(F)F [Example 457] | 90 |  |
| 3.38 | 3.48 |  |  |  | Cc1cc(F)c(-n2nc(Br)n(C3CC3)c2=O)cc1SCC(F)(F)F [Example 294] | 100 |  |
